# Key:
# lambsquarters = test: Test B pre-/postemergence herbicide test; assay type: in vivo, Chenopodium album; settings: for Plant response rating (0 to 100 scale), Lambsquarters: 0 is no effect
# In short: (§1)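 Flooded paddy rice and barnyardgrass were treated at the 2-leaf stage; upland plantings received compound either on sown seed or on 1- to 4-leaf seedlings. All were kept 13–15 days in a greenhouse and scored visually, 0–100, relative to untreated plants.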
# morningglory = test: Test B pre-/postemergence herbicide test; assay type: in vivo, Ipomoea coccinea; settings: for Plant response rating (0 to 100 scale), Morningglory: 0 is no effect
# In short: (§2)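 Formulation: non-phytotoxic solvent mix with surfactant. Timing: preemergence on seed and postemergence on 2–18 cm plants, applied concurrently. Readout after 13–15 d greenhouse: visual 0–100 control rating against controls.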
# barnyardgrass [1] = test: Test B pre-/postemergence herbicide test; assay type: in vivo, Echinochloa crus-galli; settings: for Plant response rating (0 to 100 scale), Barnyardgrass: 0 is no effect
# In short: as §2
# wild oat = test: Test B postemergence herbicide test; assay type: in vivo, Avena fatua
# In short: (§3)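 Each value is a visual 0–100 response rating taken against controls 13 to 15 days after treatment in the greenhouse. Plants received formulated chemical postemergence at the 1- to 4-leaf stage or, in flooded paddy, at the 2-leaf stage.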
# blackgrass = test: Test B postemergence herbicide test; assay type: in vivo, Alopecurus myosuroides
# In short: (§4)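 Scale 0–100: zero equals no visible effect, 100 complete control, judged by eye relative to controls. Timing: 13 to 15 days in greenhouse post-treatment. Growth stage at spraying: two leaves (paddy) or one to four leaves, 2–18 cm (postemergence).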
# ducksalad [2] = test: Test B flooded paddy test; assay type: in vivo, Heteranthera limosa; settings: 1000 g ai/ha, scale 0 to 100 (0 no effect, 100 complete control)
# In short: as §4
# large crabgrass = test: Test B pre-/postemergence herbicide test; assay type: in vivo, Digitaria sanguinalis; settings: for Plant response rating (0 to 100 scale), Crabgrass, Large: 0 is no effect
# In short: as §1
# [3] = system: smallflower umbrella sedge; test: Test C flooded paddy test; assay type: in vivo, Cyperus difformis; settings: for Plant response rating, Sedge, Umbrella: 500 g ai/ha, visual rating after 12 to 14 days
# corn = test: Test B pre-/postemergence herbicide test; assay type: in vivo, Zea mays; settings: for Plant response rating (0 to 100 scale), Corn: 0 is no effect
# In short: as §1
# barnyardgrass [4] = test: Test B flooded paddy test; assay type: in vivo, Echinochloa crus-galli; settings: 1000 g ai/ha, scale 0 to 100 (0 no effect, 100 complete control)
# In short: as §4
# rice [5] = test: Test B flooded paddy test; assay type: in vivo, Oryza sativa; settings: 1000 g ai/ha, scale 0 to 100 (0 no effect, 100 complete control)
# In short: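 After treating 2-leaf paddy plants or 2–18 cm postemergence plants (1 to 4 leaves) with formulated chemical, researchers kept them in a greenhouse for 13–15 days. Effects were judged visually versus controls: 0 indicates none, 100 total control.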
# [6] = system: small flower umbrella sedge; test: Test B flooded paddy test; assay type: in vivo, Cyperus difformis; settings: 1000 g ai/ha, scale 0 to 100 (0 no effect, 100 complete control)
# In short: as §4
# barnyardgrass [7] = test: Test C flooded paddy test; assay type: in vivo, Echinochloa crus-galli; settings: for Plant response rating, Barnyardgrass: 500 g ai/ha, visual rating after 12 to 14 days
# In short: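 Ratings (0 = no effect, 100 = complete control) come from visual comparison with untreated plants after 12 to 14 days in the greenhouse. Treatment was postemergence at the 1- to 4-leaf stage (2–18 cm), or at the 2-leaf stage for the flooded paddy barnyardgrass.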
# Surinam grass = test: Test B pre-/postemergence herbicide test; assay type: in vivo, Urochloa decumbens; settings: for Plant response rating (0 to 100 scale), Surinam Grass: 0 is no effect
# In short: as §1
# ducksalad [8] = test: Test C flooded paddy test; assay type: in vivo, Heteranthera limosa; settings: for Plant response rating, Ducksalad: 500 g ai/ha, visual rating after 12 to 14 days
# pigweed = test: Test B pre-/postemergence herbicide test; assay type: in vivo, Amaranthus retroflexus; settings: for Plant response rating (0 to 100 scale), Pigweed: 0 is no effect
# In short: as §1
# giant foxtail = test: Test B pre-/postemergence herbicide test; assay type: in vivo, Setaria faberi; settings: for Plant response rating (0 to 100 scale), Foxtail, Giant: 0 is no effect
# In short: as §1
# rice [9] = test: Test C flooded paddy test; assay type: in vivo, Oryza sativa; settings: for Plant response rating, Rice: 500 g ai/ha, visual rating after 12 to 14 days
# In short: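 Injury scored visually against controls on a 0 (no effect) to 100 (complete control) scale, 12 to 14 days after treatment in greenhouse. Flooded paddy plants treated at 2-leaf stage; postemergence plants at 1- to 4-leaf stage, 2 to 18 cm tall.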
# velvetleaf = test: Test B pre-/postemergence herbicide test; assay type: in vivo, Abutilon theophrasti; settings: for Plant response rating (0 to 100 scale), Velvetleaf: 0 is no effect, preemergence
# In short: as §1
# cocklebur = test: Test B pre-/postemergence herbicide test; assay type: in vivo, Xanthium strumarium; settings: for Plant response rating (0 to 100 scale), Cocklebur: 0 is no effect
# In short: as §2
# wheat = test: Test B postemergence herbicide test; assay type: in vivo, Triticum aestivum; parameters: key to Wheat plant response rating: 0 = no effect, 100 = complete control
# In short: as §3
# [10] = 125 g ai/ha, 100 is complete control, preemergence
# [11] = 125 g ai/ha, visual rating, scale 0 (no effect) to 100 (complete control), postemergence
# [12] = Postemergence, 500 g ai/ha, scale 0 (no effect) to 100 (complete control)
# [13] = 125 g ai/ha, scale 0 to 100 (0 no effect, 100 complete control)
# [14] = 250 g ai/ha, scale of 0 to 100, 0 is no effect, 100 is complete control
# [15] = scale 0 to 100 (0 no effect, 100 complete control)
# [16] = 62 g ai/ha, scale 0 to 100 (0 no effect, 100 complete control)
# [17] = 125 g ai/ha, 100 is complete control
# [18] = 500 g ai/ha, visual rating, 0 = no effect, 100 = complete control, preemergence
# [19] = postemergence, 500 g ai/ha, scale 0 to 100, 0 is no effect, 100 is complete control
smiles,measurement,setting,value
Cc1nn(C(C)C)nc1C(=O)Nc1cccc(C(=O)N2CC=CC2)c1 [Compound 406],"Plant response rating (0 to 100 scale), Lambsquarters",lambsquarters; [10],90
same,Lambsquarters plant response rating,lambsquarters; [11],50
same,Lambsquarters plant response rating,lambsquarters; [12],60
same,"Plant response rating (0 to 100 scale), Morningglory",morningglory; [10],10
same,Morningglory plant response rating,morningglory; [11],20
same,Morningglory plant response rating,morningglory; [12],60
same,"Plant response rating (0 to 100 scale), Barnyardgrass",barnyardgrass [1]; [10],40
same,Barnyardgrass plant response rating,barnyardgrass [1]; [11],10
same,Barnyardgrass plant response rating,barnyardgrass [1]; [12],20
same,"Oat, Wild plant response rating",wild oat; [11],0
same,"Oat, Wild plant response rating",wild oat; [12],10
same,Blackgrass plant response rating,blackgrass; [11],10
same,Blackgrass plant response rating,blackgrass; [12],20
same,Ducksalad plant response rating,ducksalad [2],90
same,"Plant response rating (0 to 100 scale), Crabgrass, Large",large crabgrass; [10],90
same,"Crabgrass, Large plant response rating",large crabgrass; [11],10
same,"Crabgrass, Large plant response rating",large crabgrass; [12],20
same,"Sedge, Umbrella plant response rating","[3]; 62 g ai/ha, scale 0 to 100",75
same,"Sedge, Umbrella plant response rating",[3]; [13],75
same,"Sedge, Umbrella plant response rating",[3]; [14],75
same,"Plant response rating, Sedge, Umbrella",[3]; [15],75
same,"Plant response rating (0 to 100 scale), Corn",corn; [10],0
same,Corn plant response rating,corn; [11],0
same,Corn plant response rating,corn; [12],10
same,Barnyardgrass plant response rating,barnyardgrass [4],90
same,Rice plant response rating,rice [5],60
same,"Sedge, Umbrella plant response rating",[6],90
same,Barnyardgrass plant response rating,barnyardgrass [7]; [16],10
same,Barnyardgrass plant response rating,barnyardgrass [7]; [13],25
same,Barnyardgrass plant response rating,barnyardgrass [7]; [14],30
same,"Plant response rating, Barnyardgrass",barnyardgrass [7]; [15],40
same,"Plant response rating (0 to 100 scale), Surinam Grass",Surinam grass; [10],20
same,Surinam Grass plant response rating,Surinam grass; [11],0
same,Surinam Grass plant response rating,Surinam grass; [12],20
same,Ducksalad plant response rating,"ducksalad [8]; 62 g ai/ha, scale 0 to 100",20
same,Ducksalad plant response rating,ducksalad [8]; [13],20
same,Ducksalad plant response rating,ducksalad [8]; [14],50
same,"Plant response rating, Ducksalad",ducksalad [8]; [15],75
same,"Plant response rating (0 to 100 scale), Pigweed",pigweed; [10],50
same,Pigweed plant response rating,pigweed; [11],40
same,Pigweed plant response rating,pigweed; [12],50
same,"Plant response rating (0 to 100 scale), Foxtail, Giant",giant foxtail; [10],20
same,"Foxtail, Giant plant response rating",giant foxtail; [11],30
same,"Foxtail, Giant plant response rating",giant foxtail; [12],40
same,Rice plant response rating,"rice [9]; 62 g ai/ha, scale 0 to 100",20
same,Rice plant response rating,rice [9]; [13],35
same,Rice plant response rating,rice [9]; [14],40
same,"Plant response rating, Rice",rice [9]; [15],45
same,"Plant response rating (0 to 100 scale), Velvetleaf",velvetleaf; [17],10
same,Velvetleaf plant response rating,velvetleaf; [11],20
same,Velvetleaf plant response rating,velvetleaf; [12],30
same,"Plant response rating (0 to 100 scale), Cocklebur",cocklebur; [10],0
same,Cocklebur plant response rating,cocklebur; [11],20
same,Cocklebur plant response rating,cocklebur; [12],50
same,Wheat plant response rating,wheat; [11],0
same,Wheat plant response rating,"wheat; 500 g ai/ha, scale 0 to 100, 0 no effect, 100 complete control, preemergence",40
same,Wheat plant response rating,wheat; [12],0
CCOC(=O)c1ccc(F)c(NC(=O)C2CN(C(C)(C)C)N=C2CC)c1 (racemic) [Compound 335],"Plant response rating (0 to 100 scale), Lambsquarters",lambsquarters; [10],0
same,Lambsquarters plant response rating,lambsquarters; [11],10
same,"Plant response rating, Lambsquarters",lambsquarters; [18],10
same,Lambsquarters plant response rating,lambsquarters; [19],30
same,"Plant response rating (0 to 100 scale), Morningglory",morningglory; [10],0
same,Morningglory plant response rating,morningglory; [11],10
same,"Plant response rating, Morningglory",morningglory; [18],10
same,Morningglory plant response rating,morningglory; [19],40
same,"Plant response rating (0 to 100 scale), Barnyardgrass",barnyardgrass [1]; [10],50
same,Barnyardgrass plant response rating,barnyardgrass [1]; [11],0
same,"Plant response rating, Barnyardgrass",barnyardgrass [1]; [18],60
same,Barnyardgrass plant response rating,barnyardgrass [1]; [19],50
same,"Oat, Wild plant response rating",wild oat; [11],20
same,"Oat, Wild plant response rating",wild oat; [19],40
same,Blackgrass plant response rating,blackgrass; [11],10
same,Blackgrass plant response rating,blackgrass; [19],30
same,Ducksalad plant response rating,ducksalad [2],90
same,"Plant response rating (0 to 100 scale), Crabgrass, Large",large crabgrass; [10],50
same,"Crabgrass, Large plant response rating",large crabgrass; [11],10
same,"Plant response rating, Crabgrass, Large",large crabgrass; [18],100
same,"Crabgrass, Large plant response rating",large crabgrass; [19],40
same,"Sedge, Umbrella plant response rating","[3]; 62 g ai/ha, scale 0 to 100",45
same,"Sedge, Umbrella plant response rating",[3]; [13],85
same,"Sedge, Umbrella plant response rating",[3]; [14],90
same,"Plant response rating, Sedge, Umbrella",[3]; [15],95
same,"Plant response rating (0 to 100 scale), Corn",corn; [10],30
same,Corn plant response rating,corn; [11],10
same,"Plant response rating, Corn",corn; [18],50
same,Corn plant response rating,corn; [19],20
same,Barnyardgrass plant response rating,barnyardgrass [4],60
same,Rice plant response rating,rice [5],70
same,"Sedge, Umbrella plant response rating",[6],80
same,Barnyardgrass plant response rating,barnyardgrass [7]; [16],10
same,Barnyardgrass plant response rating,barnyardgrass [7]; [13],25
same,Barnyardgrass plant response rating,barnyardgrass [7]; [14],40
same,"Plant response rating, Barnyardgrass",barnyardgrass [7]; [15],65
same,"Plant response rating (0 to 100 scale), Surinam Grass",Surinam grass; [10],30
same,Surinam Grass plant response rating,Surinam grass; [11],10
same,"Plant response rating, Surinam Grass",Surinam grass; [18],40
same,Surinam Grass plant response rating,Surinam grass; [19],30
same,Ducksalad plant response rating,"ducksalad [8]; 62 g ai/ha, scale 0 to 100",0
same,Ducksalad plant response rating,ducksalad [8]; [13],35
same,Ducksalad plant response rating,ducksalad [8]; [14],50
same,"Plant response rating, Ducksalad",ducksalad [8]; [15],70
same,"Plant response rating (0 to 100 scale), Pigweed",pigweed; [10],0
same,Pigweed plant response rating,pigweed; [11],20
same,"Plant response rating, Pigweed",pigweed; [18],10
same,Pigweed plant response rating,pigweed; [19],70
same,"Plant response rating (0 to 100 scale), Foxtail, Giant",giant foxtail; [10],60
same,"Foxtail, Giant plant response rating",giant foxtail; [11],20
same,"Plant response rating, Foxtail, Giant",giant foxtail; [18],90
same,"Foxtail, Giant plant response rating",giant foxtail; [19],40
same,Rice plant response rating,"rice [9]; 62 g ai/ha, scale 0 to 100",25
same,Rice plant response rating,rice [9]; [13],25
same,Rice plant response rating,rice [9]; [14],55
same,"Plant response rating, Rice",rice [9]; [15],55
same,"Plant response rating (0 to 100 scale), Velvetleaf",velvetleaf; [17],40
same,Velvetleaf plant response rating,velvetleaf; [11],30
same,Velvetleaf plant response rating,velvetleaf; [19],60
same,"Plant response rating (0 to 100 scale), Cocklebur",cocklebur; [10],0
same,Cocklebur plant response rating,cocklebur; [11],10
same,"Plant response rating, Cocklebur",cocklebur; [18],10
same,Cocklebur plant response rating,cocklebur; [19],70
same,Wheat plant response rating,wheat; [11],10
same,Wheat plant response rating,wheat; [19],20
